Results as given in patent US5079241A, “Cephalosporin derivatives and pharmaceutical compositions in which they are present” (Sanofi, priority 1987, dated 1992).
Values after ≈ are worked out from the molar mass of the structure shown.

Legend:
[1] = pharmacokinetic behavior in baboons, 20 mg/kg (Tables 5 and 7); type: in vivo
Method: (§1) Furthermore, the pharmacokinetic behavior of the products according to the invention was studied in baboons after administration at a dose of 20 mg/kg by intramuscular injection or intravenous injection.
(§2) Blood samples taken at various times after administration are used to determine the plasma concentration of the product studied by microbiological assay.
(§3) It is thus possible to construct the curve showing the plasma concentration as a function of time, and to determine different pharmacokinetic parameters of the compound studied:
(§4) the elimination half-life (t1/2 β) is calculated by the formula [formula] in which β represents the elimination gradient or slope;
(§5) the area under the curve (AUC) is determined by the trapezium method.
(§6) The plasma concentrations obtained with various products of the invention are collated in Tables 4 and 5. They are expressed in μg/ml.

[2] = pharmacokinetic behavior in baboons, 20 mg/kg (Tables 4 and 6); type: in vivo; details: baboon; for Tmax / Cmax / half-life / AUC(0-t) at 6 h / concentration at 6 h / concentration at 10 min / concentration at 20 min / concentration at 0.5 h / concentration at 0.75 h / concentration at 1 h / concentration at 1.5 h / concentration at 2 h / concentration at 3 h / concentration at 4 h / concentration at 5 h / concentration at 5.5 h: plasma; for Cmax: read-out: Max plasma concentration; for half-life: read-out: t1/2 β; for AUC(0-t) at 6 h: trapezium method; for concentration at 6 h / concentration at 10 min / concentration at 20 min / concentration at 0.5 h / concentration at 0.75 h / concentration at 1 h / concentration at 1.5 h / concentration at 2 h / concentration at 3 h / concentration at 4 h / concentration at 5 h / concentration at 5.5 h / dose excreted at 6 h: 20 mg/kg; for concentration at 0.5 h: 30 minutes; for concentration at 0.75 h: 45 minutes; for concentration at 1 h: 60 minutes; for concentration at 1.5 h: 90 minutes; for concentration at 2 h: 120 minutes; for concentration at 3 h: 180 minutes; for concentration at 4 h: 240 minutes; for concentration at 5 h: 300 minutes; for concentration at 5.5 h: 330 minutes; for dose excreted at 6 h: urine, 6 h (Table 6), read-out: Excretion in the urine
Method: as §1, §2, §3, §4, §5, §6

[3] = protein binding by comparing two standard scales in baboon plasma and phosphate buffer; type: in vitro ADME; details: baboon plasma vs phosphate buffer (pH 7, 0.03M)
Text: Furthermore, the protein binding is obtained by comparing two standard scales, one being prepared in baboon plasma and the other in phosphate buffer (pH 7, 0.03M).

[4] = system: Staph. aureus Smith; assay: bacteriostatic action in vitro by the dilution method (MIC); type: cell-based; details: Staphylococcus aureus, read-out: minimum inhibitory concentrations (MIC)
Method: (§7) The bacteriostatic action was determined in vitro by the dilution method. The study was carried out on both Gram-positive strains and Gram-negative strains.
(§8) The results for various products according to the invention, expressed as minimum inhibitory concentrations (MIC - μg/ml), are collated in Table 3.

[5] = system: Escherichia coli C1/Col E1::Tn3; assay: as above; type: cell-based; details: read-out: minimum inhibitory concentrations (MIC)
Method: as §7, §8

[6] = system: Providencia 155; assay: as above; type: cell-based; details: read-out: minimum inhibitory concentrations (MIC)
Method: as §7, §8

[7] = system: Escherichia coli SOL RL 90; assay: as above; type: cell-based; details: SOLRL90, read-out: minimum inhibitory concentrations (MIC)
Method: as §7, §8

[8] = system: Klebsiella pneumoniae R30; assay: as above; type: cell-based; details: read-out: minimum inhibitory concentrations (MIC)
Method: as §7, §8

[9] = system: Pseudomonas aeruginosa NCTC 8203; assay: as above; type: cell-based; details: NCTC8203, read-out: minimum inhibitory concentrations (MIC)
Method: as §7, §8

[10] = system: Proteus vulgaris GN 76/C-1; assay: as above; type: cell-based; details: GN76, read-out: minimum inhibitory concentrations (MIC)
Method: as §7, §8

[11] = 20 mg/kg (Table 6), read-out: Plasma concentration at 6 h
[12] = 360 minutes, read-out: plasma concentration

**Q.** What does the source list for CC(C)(ON=C(C(=O)NC1C(=O)N2C(C(=O)O)=C(COC(=O)c3ccc(NS(=O)(=O)CCN)cc3)CSC12)c1csc(N)n1)C(=O)O (stereo not shown) [C, reference compound]?
**A.** Plasma concentration at 24 h ([1]; 20 mg/kg (Table 7)): 7.7 µg/mL; Plasma concentration at 48 h ([1]; 20 mg/kg (Table 7)): 0.6 µg/mL; Cmax ([1]; baboon, plasma, 20 mg/kg (Table 7), read-out: Maximum plasma concentration): 233 µg/mL; half-life ([1]; baboon, plasma, 20 mg/kg (Table 7), read-out: t1/2 β (converted)): 6.3 h; AUC(0-inf) ([1]; baboon, plasma, 20 mg/kg (Table 7), trapezium method, read-out: AUC 0-.infin.): 1210 µg·h/mL; concentration at 0.08 h ([1]; baboon, plasma, 20 mg/kg, 0.08 hours): 233 µg/mL; concentration at 0.16 h ([1]; baboon, plasma, 20 mg/kg, 0.16 hours): 213 µg/mL; concentration at 0.25 h ([1]; baboon, plasma, 20 mg/kg, 0.25 hours): 190 µg/mL; concentration at 0.33 h ([1]; baboon, plasma, 20 mg/kg, 0.33 hours): 170 µg/mL; concentration at 0.5 h ([1]; baboon, plasma, 20 mg/kg, 0.5 hours): 124 µg/mL; concentration at 0.75 h ([1]; baboon, plasma, 20 mg/kg, 0.75 hours): 121 µg/mL; concentration at 1 h ([1]; baboon, plasma, 20 mg/kg, 1 hours): 120 µg/mL; concentration at 1.5 h ([1]; baboon, plasma, 20 mg/kg, 1.5 hours): 112 µg/mL; concentration at 2 h ([1]; baboon, plasma, 20 mg/kg, 2 hours): 98.4 µg/mL; concentration at 3 h ([1]; baboon, plasma, 20 mg/kg, 3 hours): 72.9 µg/mL; concentration at 4 h ([1]; baboon, plasma, 20 mg/kg, 4 hours): 68.7 µg/mL; concentration at 5 h ([1]; baboon, plasma, 20 mg/kg, 5 hours): 62.1 µg/mL; concentration at 6 h ([1]; baboon, plasma, 20 mg/kg, 6 hours): 54.4 µg/mL; concentration at 24 h ([1]; baboon, plasma, 20 mg/kg, 24 hours): 7.7 µg/mL; concentration at 48 h ([1]; baboon, plasma, 20 mg/kg, 48 hours): 0.6 µg/mL; dose excreted at 6 h ([1]; baboon, urine, 20 mg/kg (Table 7), read-out: Excretion in urine at 6 h): 18%

**Q.** With CC(C)(ON=C(C(=O)NC1C(=O)N2C(C(=O)O)=C(COC(=O)c3ccc(NC(=O)CN)cc3)CSC12)c1csc(N)n1)C(=O)O (stereo not shown) [Product A, reference compound] as the molecule, how does the Tmax ([2]; 20 mg/kg (Table 6)) read?
**A.** 0.75 h

**Q.** What about the Cmax ([2]; 20 mg/kg (Table 6)) of the same molecule?
**A.** 69.5 µg/mL

**Q.** And the half-life ([2]; 20 mg/kg (Table 6))?
**A.** 3.25 h

**Q.** And the AUC(0-t) at 6 h ([2]; 20 mg/kg (Table 6))?
**A.** 284 µg·h/mL

**Q.** What about the concentration at 6 h [2, 11] of the same molecule?
**A.** 17.3 µg/mL

**Q.** And the concentration at 10 min [2]?
**A.** 20.8 µg/mL

**Q.** What about the concentration at 20 min [2] of the same molecule?
**A.** 36.8 µg/mL

**Q.** What about the concentration at 0.5 h [2] of the same molecule?
**A.** 44.4 µg/mL

**Q.** What about the concentration at 0.75 h [2] of the same molecule?
**A.** 59.3 µg/mL

**Q.** And the concentration at 1 h [2]?
**A.** 60 µg/mL

**Q.** And the concentration at 1.5 h [2]?
**A.** 55.5 µg/mL

**Q.** And the concentration at 2 h [2]?
**A.** 53.3 µg/mL

**Q.** And the concentration at 3 h [2]?
**A.** 40 µg/mL

**Q.** And the concentration at 4 h [2]?
**A.** 36.2 µg/mL

**Q.** What about the concentration at 5 h [2] of the same molecule?
**A.** 27.2 µg/mL

**Q.** What about the concentration at 5.5 h [2] of the same molecule?
**A.** 23.7 µg/mL

**Q.** What about the concentration at 6 h [2, 12] of the same molecule?
**A.** 17.3 µg/mL

**Q.** What about the dose excreted at 6 h [2] of the same molecule?
**A.** 23%

**Q.** What about the fraction unbound [3] of the same molecule?
**A.** 0.55

**Q.** What does the source list for CC(C)(ON=C(C(=O)NC1C(=O)N2C(C(=O)O)=C(COC(=O)c3ccc(NC(=O)CCN)cc3)CSC12)c1csc(N)n1)C(=O)O (stereo not shown) [Product B, reference compound]?
**A.** Tmax ([2]; 20 mg/kg (Table 6)): 1.5 h; Cmax ([2]; 20 mg/kg (Table 6)): 24.1 µg/mL; half-life ([2]; 20 mg/kg (Table 6)): 1.65 h; AUC(0-t) at 6 h ([2]; 20 mg/kg (Table 6)): 87.9 µg·h/mL; concentration at 6 h [2, 11]: 4.8 µg/mL; concentration at 10 min [2]: 8.5 µg/mL; concentration at 20 min [2]: 16.4 µg/mL; concentration at 0.5 h [2]: 16.9 µg/mL; concentration at 0.75 h [2]: 17.6 µg/mL; concentration at 1 h [2]: 20.7 µg/mL; concentration at 1.5 h [2]: 24.1 µg/mL; concentration at 2 h [2]: 20.7 µg/mL; concentration at 3 h [2]: 17.6 µg/mL; concentration at 4 h [2]: 12.5 µg/mL; concentration at 5 h [2]: 8.3 µg/mL; concentration at 5.5 h [2]: 6.8 µg/mL; concentration at 6 h [2, 12]: 4.8 µg/mL; dose excreted at 6 h [2]: 18%; fraction unbound [3]: 0.52

**Q.** With CC(C)(O/N=C(\C(=O)NC1C(=O)N2C(C(=O)O)=C(COC(=O)c3ccc(NC(=O)CN)c(O)c3)CSC12)c1csc(N)n1)C(=O)O (stereo not drawn) [SR 43753, Bis-trifluoroacetate of 7-2-(2-aminothiazol-4-yl)-2-(2-carboxyprop-2-yloxyimino)acetamido]-3-[[4-(2-aminoacetyl)amino-3-hydroxybenzoyloxymethyl]-3-cephem-4-carboxylic acid, syn isomer] as the molecule, how does the Tmax ([2]; 20 mg/kg (Table 6)) read?
**A.** 2 h

**Q.** And the Cmax ([2]; 20 mg/kg (Table 6))?
**A.** 151 µg/mL

**Q.** What about the AUC(0-t) at 6 h ([2]; 20 mg/kg (Table 6)) of the same molecule?
**A.** 703 µg·h/mL

**Q.** And the concentration at 6 h [2, 11]?
**A.** 80.9 µg/mL

**Q.** And the concentration at 10 min [2]?
**A.** 36.8 µg/mL

**Q.** And the concentration at 20 min [2]?
**A.** 69.1 µg/mL

**Q.** And the concentration at 0.5 h [2]?
**A.** 95.2 µg/mL

**Q.** And the concentration at 0.75 h [2]?
**A.** 129 µg/mL

**Q.** What about the concentration at 1 h [2] of the same molecule?
**A.** 139 µg/mL

**Q.** What about the concentration at 1.5 h [2] of the same molecule?
**A.** 146 µg/mL

**Q.** What about the concentration at 2 h [2] of the same molecule?
**A.** 151 µg/mL

**Q.** What about the concentration at 3 h [2] of the same molecule?
**A.** 126 µg/mL

**Q.** What about the concentration at 4 h [2] of the same molecule?
**A.** 121 µg/mL

**Q.** What about the concentration at 5 h [2] of the same molecule?
**A.** 113 µg/mL

**Q.** And the concentration at 5.5 h [2]?
**A.** 97.6 µg/mL

**Q.** What about the concentration at 6 h [2, 12] of the same molecule?
**A.** 80.9 µg/mL

**Q.** What about the dose excreted at 6 h [2] of the same molecule?
**A.** 18%

**Q.** What about the fraction unbound [3] of the same molecule?
**A.** 0.16

**Q.** What about the MIC [4] of the same molecule?
**A.** 2 µg/mL (≈ 2.95 µM)

**Q.** And the MIC [5]?
**A.** 0.12 µg/mL (≈ 0.177 µM)

**Q.** And the MIC [6]?
**A.** 1 µg/mL (≈ 1.48 µM)

**Q.** What about the MIC [7] of the same molecule?
**A.** 2 µg/mL (≈ 2.95 µM)

**Q.** What about the MIC [8] of the same molecule?
**A.** 1 µg/mL (≈ 1.48 µM)

**Q.** And the MIC [9]?
**A.** 2 µg/mL (≈ 2.95 µM)

**Q.** What about the MIC [10] of the same molecule?
**A.** 0.12 µg/mL (≈ 0.177 µM)

**Q.** For CO/N=C(\C(=O)NC1C(=O)N2C(C(=O)O)=C(COC(=O)c3ccc(NC(=O)CN)c(O)c3)CSC12)c1csc(N)n1 (stereo not shown) [SR 43852], which MIC [4] is on record?
**A.** 0.25 µg/mL (≈ 0.413 µM)

**Q.** And the MIC [5]?
**A.** 0.06 µg/mL (≈ 0.0991 µM)

**Q.** And the MIC [6]?
**A.** 2 µg/mL (≈ 3.3 µM)

**Q.** What about the MIC [7] of the same molecule?
**A.** 0.25 µg/mL (≈ 0.413 µM)

**Q.** And the MIC [8]?
**A.** 4 µg/mL (≈ 6.6 µM)

**Q.** And the MIC [9]?
**A.** 2 µg/mL (≈ 3.3 µM)

**Q.** And the MIC [10]?
**A.** 16 µg/mL (≈ 26.4 µM)
